Measurements as given in the CheMixHub ionic liquid set.
± gives the uncertainty stated by the source.

Experiment: xn = mol fraction of the nth substance listed
Conditions: 101 kPa

## CCCC[n+]1ccn(C)c1.COS(=O)(=O)[O-] + O
283.15 K, x2 = 0.0004
  viscosity: 527 ± 18 mPa·s
283.15 K, x2 = 0.0999
  viscosity: 432 ± 13 mPa·s
283.15 K, x2 = 0.194
  viscosity: 356.2 ± 9.9 mPa·s
283.15 K, x2 = 0.3979
  viscosity: 182.1 ± 3.4 mPa·s
283.15 K, x2 = 0.6025
  viscosity: 63.13 ± 0.6 mPa·s
283.15 K, x2 = 0.8005
  viscosity: 19.72 ± 0.17 mPa·s
283.15 K, x2 = 0.8993
  viscosity: 8.179 ± 0.067 mPa·s
293.15 K, x2 = 0.0004
  viscosity: 273.8 ± 6.9 mPa·s
293.15 K, x2 = 0.0999
  viscosity: 229.3 ± 5.2 mPa·s
293.15 K, x2 = 0.194
  viscosity: 193.6 ± 3.9 mPa·s
293.15 K, x2 = 0.3979
  viscosity: 104.3 ± 1.4 mPa·s
293.15 K, x2 = 0.6025
  viscosity: 38.93 ± 0.35 mPa·s
293.15 K, x2 = 0.8005
  viscosity: 13.01 ± 0.11 mPa·s
293.15 K, x2 = 0.8993
  viscosity: 5.646 ± 0.046 mPa·s
303.15 K, x2 = 0.0004
  viscosity: 153.5 ± 2.9 mPa·s
303.15 K, x2 = 0.0999
  viscosity: 132.8 ± 2.2 mPa·s
303.15 K, x2 = 0.194
  viscosity: 114.5 ± 1.7 mPa·s
303.15 K, x2 = 0.3979
  viscosity: 64.51 ± 0.65 mPa·s
303.15 K, x2 = 0.6025
  viscosity: 25.65 ± 0.23 mPa·s
303.15 K, x2 = 0.8005
  viscosity: 9.056 ± 0.075 mPa·s
303.15 K, x2 = 0.8993
  viscosity: 4.113 ± 0.033 mPa·s
313.15 K, x2 = 0.0004
  viscosity: 93.1 ± 1.4 mPa·s
313.15 K, x2 = 0.0999
  viscosity: 82.6 ± 1.1 mPa·s
313.15 K, x2 = 0.194
  viscosity: 72.55 ± 0.86 mPa·s
313.15 K, x2 = 0.3979
  viscosity: 42.47 ± 0.42 mPa·s
313.15 K, x2 = 0.6025
  viscosity: 17.84 ± 0.16 mPa·s
313.15 K, x2 = 0.8005
  viscosity: 6.609 ± 0.055 mPa·s
313.15 K, x2 = 0.8993
  viscosity: 3.137 ± 0.026 mPa·s
323.15 K, x2 = 0.0004
  viscosity: 60.24 ± 0.76 mPa·s
323.15 K, x2 = 0.0999
  viscosity: 54.53 ± 0.63 mPa·s
323.15 K, x2 = 0.194
  viscosity: 48.65 ± 0.54 mPa·s
323.15 K, x2 = 0.3979
  viscosity: 29.48 ± 0.29 mPa·s
323.15 K, x2 = 0.6025
  viscosity: 12.97 ± 0.12 mPa·s
323.15 K, x2 = 0.8005
  viscosity: 5.006 ± 0.042 mPa·s
323.15 K, x2 = 0.8993
  viscosity: 2.483 ± 0.021 mPa·s
333.15 K, x2 = 0.0004
  viscosity: 41.07 ± 0.52 mPa·s
333.15 K, x2 = 0.0999
  viscosity: 37.8 ± 0.45 mPa·s
333.15 K, x2 = 0.194
  viscosity: 34.25 ± 0.38 mPa·s
333.15 K, x2 = 0.3979
  viscosity: 21.44 ± 0.21 mPa·s
333.15 K, x2 = 0.6025
  viscosity: 9.806 ± 0.087 mPa·s
333.15 K, x2 = 0.8005
  viscosity: 3.929 ± 0.033 mPa·s
333.15 K, x2 = 0.8993
  viscosity: 2.029 ± 0.017 mPa·s
343.15 K, x2 = 0.0004
  viscosity: 29.3 ± 0.37 mPa·s
343.15 K, x2 = 0.0999
  viscosity: 27.72 ± 0.33 mPa·s
343.15 K, x2 = 0.194
  viscosity: 25.14 ± 0.28 mPa·s
343.15 K, x2 = 0.3979
  viscosity: 16.88 ± 0.17 mPa·s
343.15 K, x2 = 0.6025
  viscosity: 8.289 ± 0.073 mPa·s
343.15 K, x2 = 0.8005
  viscosity: 3.175 ± 0.027 mPa·s
343.15 K, x2 = 0.8993
  viscosity: 1.707 ± 0.015 mPa·s

## CCCC[n+]1ccn(C)c1.N#C[C-](C#N)C#N + O
278.15 K, x2 = 0
  viscosity: 76.6 ± 2 mPa·s
278.15 K, x2 = 0.0458
  viscosity: 67.8 ± 1.3 mPa·s
278.15 K, x2 = 0.175
  viscosity: 47.79 ± 0.76 mPa·s
278.15 K, x2 = 0.2116
  viscosity: 44.3 ± 0.7 mPa·s
278.15 K, x2 = 0.2885
  viscosity: 37.68 ± 0.58 mPa·s
278.15 K, x2 = 0.4273
  viscosity: 28.9 ± 0.43 mPa·s
278.15 K, x2 = 0.5034
  viscosity: 25.05 ± 0.37 mPa·s
278.15 K, x2 = 0.5607
  viscosity: 21.78 ± 0.32 mPa·s
288.15 K, x2 = 0
  viscosity: 43.55 ± 0.74 mPa·s
288.15 K, x2 = 0.0458
  viscosity: 39.3 ± 0.66 mPa·s
288.15 K, x2 = 0.1008
  viscosity: 31.74 ± 0.52 mPa·s
288.15 K, x2 = 0.175
  viscosity: 28.85 ± 0.47 mPa·s
288.15 K, x2 = 0.2116
  viscosity: 26.98 ± 0.43 mPa·s
288.15 K, x2 = 0.2885
  viscosity: 23.28 ± 0.36 mPa·s
288.15 K, x2 = 0.4273
  viscosity: 18.24 ± 0.28 mPa·s
288.15 K, x2 = 0.5034
  viscosity: 15.99 ± 0.24 mPa·s
288.15 K, x2 = 0.5607
  viscosity: 14.03 ± 0.21 mPa·s
298.15 K, x2 = 0
  viscosity: 27.32 ± 0.47 mPa·s
298.15 K, x2 = 0.0458
  viscosity: 25.05 ± 0.42 mPa·s
298.15 K, x2 = 0.1008
  viscosity: 20.8 ± 0.35 mPa·s
298.15 K, x2 = 0.175
  viscosity: 19.03 ± 0.31 mPa·s
298.15 K, x2 = 0.2116
  viscosity: 17.9 ± 0.29 mPa·s
298.15 K, x2 = 0.2885
  viscosity: 15.62 ± 0.25 mPa·s
298.15 K, x2 = 0.4273
  viscosity: 12.43 ± 0.19 mPa·s
298.15 K, x2 = 0.5034
  viscosity: 11 ± 0.17 mPa·s
298.15 K, x2 = 0.5607
  viscosity: 9.71 ± 0.15 mPa·s
308.15 K, x2 = 0
  viscosity: 18.45 ± 0.32 mPa·s
308.15 K, x2 = 0.0458
  viscosity: 17.19 ± 0.29 mPa·s
308.15 K, x2 = 0.1008
  viscosity: 14.54 ± 0.24 mPa·s
308.15 K, x2 = 0.175
  viscosity: 13.37 ± 0.22 mPa·s
308.15 K, x2 = 0.2116
  viscosity: 12.67 ± 0.21 mPa·s
308.15 K, x2 = 0.2885
  viscosity: 11.15 ± 0.18 mPa·s
308.15 K, x2 = 0.4273
  viscosity: 8.99 ± 0.14 mPa·s
308.15 K, x2 = 0.5034
  viscosity: 8.01 ± 0.13 mPa·s
308.15 K, x2 = 0.5607
  viscosity: 7.1 ± 0.11 mPa·s
318.15 K, x2 = 0
  viscosity: 13.21 ± 0.23 mPa·s
318.15 K, x2 = 0.0458
  viscosity: 12.48 ± 0.21 mPa·s
318.15 K, x2 = 0.1008
  viscosity: 10.68 ± 0.18 mPa·s
318.15 K, x2 = 0.175
  viscosity: 9.89 ± 0.17 mPa·s
318.15 K, x2 = 0.2116
  viscosity: 9.43 ± 0.16 mPa·s
318.15 K, x2 = 0.2885
  viscosity: 8.36 ± 0.14 mPa·s
318.15 K, x2 = 0.4273
  viscosity: 6.81 ± 0.11 mPa·s
318.15 K, x2 = 0.5034
  viscosity: 6.106 ± 0.099 mPa·s
318.15 K, x2 = 0.5607
  viscosity: 5.428 ± 0.088 mPa·s
328.15 K, x2 = 0
  viscosity: 9.91 ± 0.18 mPa·s
328.15 K, x2 = 0.01382
  viscosity: 9.9 ± 0.13 mPa·s
328.15 K, x2 = 0.0458
  viscosity: 9.46 ± 0.16 mPa·s
328.15 K, x2 = 0.1008
  viscosity: 8.18 ± 0.14 mPa·s
328.15 K, x2 = 0.175
  viscosity: 7.62 ± 0.13 mPa·s
328.15 K, x2 = 0.2116
  viscosity: 7.3 ± 0.12 mPa·s
328.15 K, x2 = 0.2885
  viscosity: 6.51 ± 0.11 mPa·s
328.15 K, x2 = 0.4273
  viscosity: 5.351 ± 0.089 mPa·s
328.15 K, x2 = 0.5034
  viscosity: 4.82 ± 0.08 mPa·s
328.15 K, x2 = 0.5607
  viscosity: 4.295 ± 0.072 mPa·s
333.15 K, x2 = 0.01382
  viscosity: 8.72 ± 0.11 mPa·s
338.15 K, x2 = 0
  viscosity: 7.71 ± 0.14 mPa·s
338.15 K, x2 = 0.0458
  viscosity: 7.43 ± 0.13 mPa·s
338.15 K, x2 = 0.1008
  viscosity: 6.47 ± 0.12 mPa·s
338.15 K, x2 = 0.175
  viscosity: 6.06 ± 0.11 mPa·s
338.15 K, x2 = 0.2116
  viscosity: 5.83 ± 0.1 mPa·s
338.15 K, x2 = 0.2885
  viscosity: 5.232 ± 0.09 mPa·s
338.15 K, x2 = 0.4273
  viscosity: 4.329 ± 0.074 mPa·s
338.15 K, x2 = 0.5034
  viscosity: 3.916 ± 0.068 mPa·s
338.15 K, x2 = 0.5607
  viscosity: 3.496 ± 0.061 mPa·s
348.15 K, x2 = 0
  viscosity: 6.18 ± 0.11 mPa·s
348.15 K, x2 = 0.01382
  viscosity: 6.245 ± 0.079 mPa·s
348.15 K, x2 = 0.0458
  viscosity: 6.01 ± 0.11 mPa·s
348.15 K, x2 = 0.1008
  viscosity: 5.261 ± 0.095 mPa·s
348.15 K, x2 = 0.175
  viscosity: 4.944 ± 0.088 mPa·s
348.15 K, x2 = 0.2116
  viscosity: 4.783 ± 0.085 mPa·s
348.15 K, x2 = 0.2885
  viscosity: 4.309 ± 0.076 mPa·s
348.15 K, x2 = 0.4273
  viscosity: 3.586 ± 0.064 mPa·s
348.15 K, x2 = 0.5034
  viscosity: 3.273 ± 0.058 mPa·s
348.15 K, x2 = 0.5607
  viscosity: 2.912 ± 0.053 mPa·s
358.15 K, x2 = 0
  viscosity: 5.08 ± 0.095 mPa·s
358.15 K, x2 = 0.0458
  viscosity: 4.966 ± 0.092 mPa·s
358.15 K, x2 = 0.1008
  viscosity: 4.375 ± 0.081 mPa·s
358.15 K, x2 = 0.175
  viscosity: 4.125 ± 0.076 mPa·s
358.15 K, x2 = 0.2116
  viscosity: 4.001 ± 0.073 mPa·s
358.15 K, x2 = 0.2885
  viscosity: 3.618 ± 0.066 mPa·s
358.15 K, x2 = 0.4273
  viscosity: 3.028 ± 0.056 mPa·s
358.15 K, x2 = 0.5034
  viscosity: 2.748 ± 0.052 mPa·s
358.15 K, x2 = 0.5607
  viscosity: 2.472 ± 0.047 mPa·s
